How the values were obtained:
[1] = system: surface expression of NPC1L1 in MDCKII cells; experiment: Effect of lovastatin on surface expression of NPC1L1 ([3H]AS binding) in MDCKII cells; format: cell-based, dog; conditions: 4 μM lovastatin; for effect on [3H]AS binding: cells grown in 5% LPDS, 72 h
Method: To determine whether the expression pattern of NPC1L1 in MDCKII cells is sensitive to changes in the endogenous concentration of cholesterol, MDCKII cells were seeded and grown in either 10% FBS or 5% lipoprotein deficient serum (5% LPDS) in the absence or presence of the HMG CoA reductase inhibitor, lovastatin.

[2] = target: dog NPC1L1 endogenously expressed in MDCKII cells (Canis lupus familiaris, UniProt A0A8I3RZG1); experiment: [3H]AS binding to MDCKII cells (saturation, kinetics, competition, acid wash)
Sequence of dog NPC1L1 endogenously expressed in MDCKII cells (A0A8I3RZG1 entry or part of it): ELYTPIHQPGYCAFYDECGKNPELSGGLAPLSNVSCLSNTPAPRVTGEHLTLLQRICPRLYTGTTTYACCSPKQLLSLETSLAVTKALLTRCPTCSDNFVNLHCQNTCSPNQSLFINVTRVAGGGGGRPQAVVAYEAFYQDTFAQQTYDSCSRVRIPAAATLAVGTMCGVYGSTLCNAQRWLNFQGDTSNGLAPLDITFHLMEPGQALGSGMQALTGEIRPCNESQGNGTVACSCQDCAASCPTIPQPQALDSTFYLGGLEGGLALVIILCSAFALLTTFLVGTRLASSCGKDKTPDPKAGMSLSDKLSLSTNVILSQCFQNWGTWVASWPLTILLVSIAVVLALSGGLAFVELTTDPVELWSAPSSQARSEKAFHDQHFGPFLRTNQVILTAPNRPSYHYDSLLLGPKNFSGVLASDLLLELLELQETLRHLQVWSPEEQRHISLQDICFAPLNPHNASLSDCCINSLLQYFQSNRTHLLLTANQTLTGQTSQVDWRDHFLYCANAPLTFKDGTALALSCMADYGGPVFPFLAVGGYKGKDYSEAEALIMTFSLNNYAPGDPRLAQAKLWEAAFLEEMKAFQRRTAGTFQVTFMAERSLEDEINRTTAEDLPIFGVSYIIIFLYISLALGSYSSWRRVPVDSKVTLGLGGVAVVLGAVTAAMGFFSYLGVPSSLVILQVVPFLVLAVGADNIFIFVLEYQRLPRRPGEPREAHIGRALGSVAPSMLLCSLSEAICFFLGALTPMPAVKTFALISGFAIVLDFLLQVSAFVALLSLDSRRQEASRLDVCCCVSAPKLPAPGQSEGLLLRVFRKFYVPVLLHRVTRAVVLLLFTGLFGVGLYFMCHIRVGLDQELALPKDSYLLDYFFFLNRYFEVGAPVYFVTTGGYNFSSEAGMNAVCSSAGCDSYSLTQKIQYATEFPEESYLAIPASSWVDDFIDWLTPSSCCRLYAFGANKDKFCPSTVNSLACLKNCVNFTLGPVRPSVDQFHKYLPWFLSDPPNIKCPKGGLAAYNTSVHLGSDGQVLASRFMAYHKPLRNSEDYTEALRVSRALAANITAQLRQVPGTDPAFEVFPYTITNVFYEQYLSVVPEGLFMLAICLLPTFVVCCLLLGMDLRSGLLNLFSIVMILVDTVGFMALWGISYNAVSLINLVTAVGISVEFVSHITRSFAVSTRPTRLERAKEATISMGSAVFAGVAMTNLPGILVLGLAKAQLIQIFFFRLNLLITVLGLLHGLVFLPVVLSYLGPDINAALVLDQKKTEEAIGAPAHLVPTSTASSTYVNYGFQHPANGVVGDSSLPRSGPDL
Method: (§1) rNPC1L1/HEK293 and TsA201 cells were seeded at a density of 10,000 cells per well in 96-well poly-D-lysine coated plates and cells were allowed to attach for approximately 18 h at 37° C. TsA201 cells were subsequently transfected with dog NPC1L1/pcDNA5/FRT according to the manufacturer's instructions (Roche) and incubated for 3 days at 37° C. MDCKII-derived, LLC-PKI, HepG2, or CaCo-2 cells were seeded at a density of 25,000 cells per well in 96-well tissue culture treated plates, and cells were allowed to attach and differentiate for approximately 72 h at 37° C., except for CaCo-2 cells where differentiation took approximately 14 days at 37° C. […] Duplicate samples were averaged for each experimental point. […] Dissociation kinetics were determined by addition of 100 μM EZE-gluc, and incubating for different periods of time. Nonspecific binding was defined in the presence of 100 μM EZE-gluc. At the end of the incubation period, cells were washed twice with 200 μl of pre-warmed DMEM to separate bound from free ligand, 1% SDS was added to the wells followed by 5 ml of Scintillant, and radioactivity associated with cells was determined using a β-counter. […] Thereafter, plates were placed on ice and cells were washed twice with ice-cold PBS, followed by ice-cold acid wash with DMEM, pH 3.5, for 1, 5 or 15 minutes. […] For Transwell experiments, MDCKII cells were seeded at 200,000 cells/well in a 24-well plate and incubated for 3 days at 37° C. […] Thereafter, both apical and basolateral compartments were washed three times with PBS, and the Transwell filter was cut out and its associated radioactivity determined using afi-counter. Data from saturation, competition and ligand dissociation experiments were analyzed as described in the literature; see, Priest, et al., 2004 Biochemistry 43:9866-9876; Knaus et al., 1995 Biochemistry 34:13627-13634. The association rate, k1, was determined by employing the pseudo-first-order rate equation k1=kobs([LR]e/[L][LR]max)) where [LR]max is the concentration of the complex at equilibrium, [L] is the concentration of ligand, [LR]max is the total receptor concentration, kobs is the slope of the pseudo-first order plot, ln([LR]e/([LR]e−[LR]t)) versus time, and [LR]t is the receptor-ligand complex at one given time point t.

rat NPC1L1 = target: T1, rat NPC1L1 (Rattus norvegicus, UniProt Q6T3U3); experiment: [3H]AS binding to rNPC1L1/HEK293 cells (saturation, kinetics, competition, acid wash)
T1 construct: expressed in transfected cells
Method: rNPC1L1/HEK293 and TsA201 cells were seeded at a density of 10,000 cells per well in 96-well poly-D-lysine coated plates and cells were allowed to attach for approximately 18 h at 37° C. TsA201 cells were subsequently transfected with dog NPC1L1/pcDNA5/FRT according to the manufacturer's instructions (Roche) and incubated for 3 days at 37° C. MDCKII-derived, LLC-PKI, HepG2, or CaCo-2 cells were seeded at a density of 25,000 cells per well in 96-well tissue culture treated plates, and cells were allowed to attach and differentiate for approximately 72 h at 37° C., except for CaCo-2 cells where differentiation took approximately 14 days at 37° C. […] Duplicate samples were averaged for each experimental point. […] To determine the kinetics of ligand association, cells were incubated with [^3H]AS for different periods of time. Dissociation kinetics were determined by addition of 100 μM EZE-gluc, and incubating for different periods of time. Nonspecific binding was defined in the presence of 100 μM EZE-gluc. At the end of the incubation period, cells were washed twice with 200 μl of pre-warmed DMEM to separate bound from free ligand, 1% SDS was added to the wells followed by 5 ml of Scintillant, and radioactivity associated with cells was determined using a β-counter. […] Thereafter, plates were placed on ice and cells were washed twice with ice-cold PBS, followed by ice-cold acid wash with DMEM, pH 3.5, for 1, 5 or 15 minutes. […] For Transwell experiments, MDCKII cells were seeded at 200,000 cells/well in a 24-well plate and incubated for 3 days at 37° C. […] Thereafter, both apical and basolateral compartments were washed three times with PBS, and the Transwell filter was cut out and its associated radioactivity determined using afi-counter. Data from saturation, competition and ligand dissociation experiments were analyzed as described in the literature; see, Priest, et al., 2004 Biochemistry 43:9866-9876; Knaus et al., 1995 Biochemistry 34:13627-13634. The association rate, k1, was determined by employing the pseudo-first-order rate equation k1=kobs([LR]e/[L][LR]max)) where [LR]max is the concentration of the complex at equilibrium, [L] is the concentration of ligand, [LR]max is the total receptor concentration, kobs is the slope of the pseudo-first order plot, ln([LR]e/([LR]e−[LR]t)) versus time, and [LR]t is the receptor-ligand complex at one given time point t.
Incubation of rNPC1L1/HEK293 cells with 5 nM [311]AS results in a time-dependent association of ligand with cells that reaches equilibrium in ˜3 h (FIG. 1B). The nonspecific binding component is time-independent and has been subtracted from the experimental data. A semilogarithmic transformation of the data yielded a linear dependence (FIG. 1B, inset), as expected for a pseudo-first order reaction, and the slope of this line gives kobs of 0.0208 min^−1. The association rate constant, k1, calculated as described under Example 3, is 2.4×10^6 M^−1 min^−1.
Ki values, determined as described above, are presented in Table 1 below and display the expected rank order of potency for interaction of these ligands with rat NPC1L1; Garcia-Calvo et al., 2005 Proc. Natl. Acad. Sci. USA 102:8132-8137.
Such an approach has previously been previously used to characterize cell surface, non-covalent interactions; Hopkins & Trowbridge, 1983 J. Cell Biol. 97:508-521; Chen et al., 1998 Proc. Natl. Acad. USA 95:6373-6378.

dog NPC1L1 = dog NPC1L1 (Canis lupus familiaris, UniProt A0A8I3RZG1); experiment: [3H]AS binding to dog NPC1L1 transiently expressed in TsA201 cells
Sequence of dog NPC1L1 (A0A8I3RZG1 entry or part of it): as above
Method: as §1
To further validate this statement, cloned dog NPC1L1 was transiently expressed in TsA201 cells and binding of [^3]AS to these cells was then characterized (FIG. 5 and Table 1).

human NPC1L1 [3] = target: T2, human NPC1L1 (Homo sapiens, UniProt Q9UHC9); experiment: [3H]cholesterol flux into hNPC1L1/MDCKII-Flp cells; format: cell-based; conditions: hNPC1L1/MDCKII-Flp, FIG. 7D; read-out: IC50 block of [3H]cholesterol flux
T2 construct: expressed in transfected cells
T2 sequence (Q9UHC9 22-1359): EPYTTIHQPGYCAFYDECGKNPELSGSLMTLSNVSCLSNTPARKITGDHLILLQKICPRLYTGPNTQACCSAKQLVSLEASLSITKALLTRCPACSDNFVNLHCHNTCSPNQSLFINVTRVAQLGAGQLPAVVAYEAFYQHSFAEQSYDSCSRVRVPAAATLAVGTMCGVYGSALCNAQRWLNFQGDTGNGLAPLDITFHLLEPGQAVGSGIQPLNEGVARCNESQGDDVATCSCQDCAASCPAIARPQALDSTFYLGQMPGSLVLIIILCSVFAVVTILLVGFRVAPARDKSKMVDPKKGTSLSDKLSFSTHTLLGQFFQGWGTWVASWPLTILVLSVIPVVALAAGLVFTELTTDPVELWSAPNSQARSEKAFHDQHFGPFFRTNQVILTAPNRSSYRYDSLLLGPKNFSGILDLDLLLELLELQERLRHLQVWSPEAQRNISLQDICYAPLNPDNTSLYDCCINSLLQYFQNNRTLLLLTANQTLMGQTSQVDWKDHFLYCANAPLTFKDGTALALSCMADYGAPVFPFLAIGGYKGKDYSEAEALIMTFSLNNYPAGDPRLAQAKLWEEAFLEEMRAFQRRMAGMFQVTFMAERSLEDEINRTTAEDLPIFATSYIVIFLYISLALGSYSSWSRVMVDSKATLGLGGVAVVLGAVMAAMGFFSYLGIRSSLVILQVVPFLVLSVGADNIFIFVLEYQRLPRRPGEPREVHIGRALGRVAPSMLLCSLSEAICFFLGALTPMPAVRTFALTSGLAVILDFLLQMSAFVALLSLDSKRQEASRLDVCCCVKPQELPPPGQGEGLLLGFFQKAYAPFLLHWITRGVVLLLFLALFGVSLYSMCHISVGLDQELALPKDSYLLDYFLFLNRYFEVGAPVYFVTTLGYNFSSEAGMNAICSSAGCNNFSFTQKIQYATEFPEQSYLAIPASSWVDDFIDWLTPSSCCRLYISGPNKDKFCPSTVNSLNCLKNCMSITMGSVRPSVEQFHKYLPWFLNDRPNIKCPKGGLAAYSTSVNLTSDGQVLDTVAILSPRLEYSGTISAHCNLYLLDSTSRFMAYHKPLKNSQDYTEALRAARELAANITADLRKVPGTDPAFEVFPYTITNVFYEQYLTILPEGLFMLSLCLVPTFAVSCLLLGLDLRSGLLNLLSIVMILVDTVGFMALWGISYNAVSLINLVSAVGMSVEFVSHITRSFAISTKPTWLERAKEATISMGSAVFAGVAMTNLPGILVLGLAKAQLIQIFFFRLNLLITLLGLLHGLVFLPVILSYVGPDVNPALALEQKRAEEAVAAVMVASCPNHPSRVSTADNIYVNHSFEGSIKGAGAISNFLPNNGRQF
Method: Flux assays were performed essentially as described by Yu et al., 2006 J Biol. Chem. 281:6616-6624. Briefly, cell growth medium was completely aspirated and replaced with 200 μl of 5% LPDS containing the appropriate concentration of compound and incubated at 37° C./3 h in a 5% CO2 incubator. Media was subsequently aspirated from cells and cells were incubated in 200 μl of 0-5.5% βmCD dissolved and filtered through a […] filter at 37° C./45 minutes in a 5% CO2 incubator. Media was dumped from cells that were then washed twice with 125 μl of 5% LPDS before media was aspirated and [3H]cholesterol complexed to BSA in 5% LPDS was added; see Yu et al., 2006 J. Biol. Chem. 281:6616-6624. After 45 minute incubation, cells were washed twice with DMEM, thoroughly aspirated and then 1% SDS was added prior to extraction for scintillation counting.
To validate MDCKII cells as an appropriate surrogate system for monitoring NPC1L1-dependent processes, we evaluated their ability to perform EZE-sensitive cholesterol flux using a similar protocol to that recently reported. This assay makes use of the ability of βmCD to deplete membrane-bound cholesterol. Subsequent exposure of cells to [^3H] cholesterol provides a time-dependent flux of this substrate into the cells. […] In an attempt to improve the assay window, a stable MDCKII-Flp cell line over-expressing human NPC1L1, hNPC1L1/MDCKII-Flp, was generated.
(§2) To further characterize the [^3H] cholesterol influx process into MDCK cells, the potency of EZE-like compound PS for inhibiting [^3H] cholesterol uptake was determined.

human NPC1L1 [4] = target: T2, human NPC1L1; experiment: [3H]AS binding to hNPC1L1/MDCKII-Flp cells; conditions: FIG. 7D, read-out: Ki inhibition of [3H]AS binding
Method: as §1
To validate MDCKII cells as an appropriate surrogate system for monitoring NPC1L1-dependent processes, we evaluated their ability to perform EZE-sensitive cholesterol flux using a similar protocol to that recently reported. This assay makes use of the ability of βmCD to deplete membrane-bound cholesterol. […]
as §2

CC[C@H](C)C(=O)O[C@H]1C[C@@H](C)C=C2C=C[C@H](C)[C@H](CC[C@@H]3C[C@@H](O)CC(=O)O3)[C@H]21 [lovastatin]
effect on [3H]AS binding [1]: doubles
effect on [3H]AS binding ([1]; listed as Lovastatin): increase
effect on surface expression of NPC1L1 ([1]; cells grown in 10% FBS): does not cause any significant effect

CS(=O)(=O)NCCCc1ccc(N2C(=O)[C@H](CC[C@H](O)c3ccc(F)cc3)[C@H]2c2ccc(O[C@@H]3O[C@H](C(=O)O)[C@@H](O)[C@H](O)[C@H]3O)cc2)cc1 [AS, 4-[(2S,3R)-3-[(3S)-3-(4-fluorophenyl)-3-hydroxypropyl]-1-(4-{3-[(methylsulfonyl)amino]propyl}phenyl)-4-oxoazetidin-2-yl]phenyl β-D-gluteopyranosiduronic acid]
IC50 ([2]; 5.49 nM [3H]AS, 4 h, 37° C., read-out: IC50 inhibition of [3H]AS binding): 2.86 nM
Ki ([2]; MDCKII cells): 0.34 ± 0.04 nM
Kd ([2]; MDCKII cells, increasing [3H]AS, 4 h, 37° C.): 0.59 ± 0.07 nM
IC50 (rat NPC1L1; 5.36 nM [3H]AS, 4 h, 37° C., read-out: IC50 inhibition of [3H]AS binding): 5.25 nM
Ki (rat NPC1L1; rNPC1L1/HEK293 cells): 2.35 ± 0.49 nM
Kd (rat NPC1L1; rNPC1L1/HEK293 cells, increasing [3H]AS, 4 h, 37° C., read-out: Kd (equilibrium dissociation constant, saturation binding)): 4.62 ± 0.69 nM
IC50 (dog NPC1L1; 4.65 nM [3H]AS, 4 h, 37° C., read-out: IC50 inhibition of [3H]AS binding): 3.79 nM
Kd (dog NPC1L1; dog NPC1L1/TsA201 cells, read-out: Kd (saturation binding)): 2.15 ± 0.39 nM
Ki (dog NPC1L1; dog NPC1L1/TsA201 cells, read-out: Ki (competition with [3H]AS)): 1 ± 0.11 nM

O=C(O)C1OC(Oc2ccc(C3C(CCC(O)c4ccc(F)cc4)C(=O)N3c3ccc(F)cc3)cc2)C(O)C(O)C1O (single isomer, unassigned; ent-1) [ent-1]
IC50 (human NPC1L1 [3]): > 100000 nM
Ki (human NPC1L1 [4]): > 100000 nM
